According to patent publication EP0745597A2, “Novel melatonergic indanyl piperazines or homopiperazines” (BRISTOL-MYERS SQUIBB COMPANY, priority 1995, dated 1996):

Biological target: T1, human ML1B receptor (Homo sapiens, UniProt P49286)
T1 construct: host or cells: NIH 3T3 cells, stably transfected; membrane homogenates
T1 sequence (P49286 1-362): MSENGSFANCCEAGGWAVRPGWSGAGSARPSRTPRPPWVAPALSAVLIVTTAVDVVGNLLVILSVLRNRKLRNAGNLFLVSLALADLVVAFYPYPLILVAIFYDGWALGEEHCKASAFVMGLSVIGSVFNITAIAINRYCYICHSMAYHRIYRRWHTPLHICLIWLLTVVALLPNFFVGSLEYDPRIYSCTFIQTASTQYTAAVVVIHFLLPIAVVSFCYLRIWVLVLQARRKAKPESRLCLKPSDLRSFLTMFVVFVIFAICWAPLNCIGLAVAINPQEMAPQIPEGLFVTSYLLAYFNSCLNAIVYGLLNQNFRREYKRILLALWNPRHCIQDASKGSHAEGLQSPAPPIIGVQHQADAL
Assay: Measurement of binding to melatonergic receptors (2-[125I]-iodomelatonin, membranes of transfected NIH 3T3 cells)
Details: 2-[125I]-Iodomelatonin 200 pM, 37 °C for 1 hour, NIH 3T3 cells stably transfected with the human ML1B receptor; read-out: Melatonin Binding
Procedure: The melatonergic binding affinities of various compounds of Formula I were determined by the method of Reppert, S. M., Weaver, D. R., and Ebisawa, R. (Neuron, Volume 13, 1177-1185, 1994). The assays were incubated at 37 °C for 1 hour, and the reaction was terminated by filtration. The filters were washed with wash buffer. […] The reagents, membrane and other techniques used in the melatonergic binding assays are more fully described below: • 1. Reagents: • (a) 50 mM Tris buffer containing 12.5 mM MgCl2, and 2mM EDTA, pH 7.4 at 37 °C. • (b) Wash buffer: 20 mM Tris base containing 2 mM MgCl2. pH 7.4 at room temperature. • (c) Melatonin (10^-5 M final concentration). • (d) 2-[^125I]-Iodomelatonin, 200 pM final concentration Source: NEN • 2. Membrane preparation: NIH 3T3 cells stably transfected with the human ML1B receptor were obtained from S.M. Reppert and maintained. Cells were pelleted when confluent. The supernatant was discarded and the pellets frozen. For preparing membrane homogenates, the pellets are thawed on ice and resuspended in TME buffer, Tris base, MgCl2, EDTA (pH 7.4 at 37 °C ), supplemented with aprotinin, leupeptin, and […]. The cells were then homogenized and centrifuged. The resulting pellet was resuspended with a Dounce homogenizer in TME and frozen. At assay, a small aliquot was thawed on ice and resuspended in TME buffer. […] These compounds are considered active.

SMILES	IC50 [nM]
CCC(C)(C)C(=O)N1CCN(C2CCc3ccc(OC)cc32)CC1 (single isomer, unassigned; (-)) [(-)-1-(2,2-Dimethyl-butanoyl)-4-(6-methoxy-indan-1-yl)piperazine]	10 to 100
COc1ccc2c(c1)C(N1CCN(C(=O)c3ccccc3Cl)CC1)CC2 (single isomer, unassigned; (-)) [(-)-1-(2-Chlorobenzoyl)-4-(6-methoxy-indan-1-yl)piperazine]	100 to 250
COc1ccc2c(c1)C(N1CCN(C(=O)c3ccccc3)CC1)CC2 (single isomer, unassigned; (-)) [(-)-1-(Benzoyl)-4-(6-methoxy-indan-1-yl)piperazine]	100 to 250
COc1ccc2c(c1)C(N1CCN(C(=O)CCl)CC1)CC2 (single isomer, unassigned; (-)) [(-)-1-(Chloroacetyl)-4-(6-methoxy-indan-1-yl)piperazine]	10 to 100
COc1ccc2c(c1)C(N1CCN(C(=O)C3(C)CCCCC3)CC1)CC2 (single isomer, unassigned; (-)) [(-)-1-[(1-Methylcyclohexyl)carbonyl]-4-(6-methoxy-indan-1-yl)piperazine]	100 to 250
COc1ccc2c(c1)C(N1CCN(C(=O)c3c[nH]c4ccccc34)CC1)CC2 (single isomer, unassigned; (-)) [(-)-1-[(1H-indol-3-yl)carbonyl]-4-(6-methoxy-indan-1-yl)piperazine]	100 to 250
COc1ccc2c(c1)C(N1CCN(C(=O)C=C(C)C)CC1)CC2 (single isomer, unassigned; (-)) [(-)-1-[(2,2-Dimethyl-ethenyl)carbonyl]-4-(6-methoxy-indan-1-yl)piperazine]	10 to 100
COc1ccc2c(c1)C(N1CCN(C(=O)c3ccoc3)CC1)CC2 (single isomer, unassigned; (-)) [(-)-1-[(3-Furanyl)carbonyl]-4-(6-methoxy-indan-1-yl)piperazine]	10 to 100
COc1ccc2c(c1)C(N1CCN(C(=O)c3cc(Br)c(Br)s3)CC1)CC2 (single isomer, unassigned; (-)) [(-)-1-[(4,5-Dibromo-thien-2-yl)carbonyl]-4-(6-methoxy-indan-1-yl)piperazine]	100 to 250
COc1ccc2c(c1)C(N1CCN(C(=O)c3ccc(Br)o3)CC1)CC2 (single isomer, unassigned; (-)) [(-)-1-[(5-Bromo-furan-2-yl)carbonyl]-4-(6-methoxy-indan-1-yl)piperazine]	10 to 100
COc1ccc2c(c1)C(N1CCN(C(=O)c3ccc(Cl)s3)CC1)CC2 (single isomer, unassigned; (-)) [(-)-1-[(5-Chloro-thien-2-yl)carbonyl]-4-(6-methoxy-indan-1-yl)piperazine]	100 to 250
CCC(=O)C(=O)N1CCN(C2CCc3ccc(OC)cc32)CC1 (single isomer, unassigned; (-)) [(-)-4-(6-Methoxy-indan-1-yl)-1-(2-oxo-butanoyl)piperazine]	10 to 100
C=CCCC(=O)N1CCN(C2CCc3ccc(OC)cc32)CC1 (single isomer, unassigned; (-)) [(-)-4-(6-Methoxy-indan-1-yl)-1-(4-pentenoyl)piperazine]	100 to 250
C=CCCCCCCCCC(=O)N1CCN(C2CCc3ccc(OC)cc32)CC1 (single isomer, unassigned; (-)) [(-)-4-(6-Methoxy-indan-1-yl)-1-(10-undecenoyl)piperazine]	100 to 250
COc1ccc2c(c1)C(N1CCN(C(=O)c3csnn3)CC1)CC2 (single isomer, unassigned; (-)) [(-)-4-(6-Methoxy-indan-1-yl)-1-[(1,2,3-thiadiazol-4-yl)carbonyl]-piperazine]	10 to 100
COc1ccc2c(c1)C(N1CCN(C(=O)c3ccc[nH]3)CC1)CC2 (single isomer, unassigned; (-)) [(-)-4-(6-Methoxy-indan-1-yl)-1-[(1H-pyrrol-2-yl)carbonyl]-piperazine]	10 to 100
CCCC(=O)N1CCN(C2CCCc3ccc(OC)cc32)CC1 (stereo not drawn) [1-(1-Butanoyl)-4-(7-methoxy-tetralin-1-yl)piperazine]	10 to 100
COc1ccc2c(c1)C(N1CCN(C(=O)C(C)(C)C)CC1)CC2 (stereo not drawn) [1-(2,2-dimethyl-propanoyl)-4-(6-methoxy-indan-1-yl)piperazine]	10 to 100
COc1ccc2c(c1)C(N1CCN(C(=O)C3CCCC3)CC1)CC2 (stereo not drawn) [1-(Cyclopentylcarbonyl)-4-(6-methoxy-indan-1-yl)piperazine]	10 to 100
COc1cc2c(cc1F)CCC2N1CCN(C(=O)C2CC2)CC1 (stereo not drawn) [1-(Cyclopropylcarbonyl)-4-(5-fluoro-6-methoxy-indan-1-yl)piperazine]	10 to 100
CCc1ccc2c(c1)C(N1CCN(C(=O)C3CC3)CC1)CC2 (stereo not drawn) [1-(Cyclopropylcarbonyl)-4-(6-ethyl-indan-1-yl)piperazine]	100 to 250
COc1ccc2c(c1)C(N1CCCN(C(=O)C3CC3)CC1)CC2 (stereo not drawn) [1-(Cyclopropylcarbonyl)-4-(6-methoxy-indan-1-yl)homopiperazine]	10 to 100

Other lines, results leading:

IC50 [nM]	SMILES
< 10	COc1ccc2c(c1)C(N1CCN(C(=O)c3sccc3Br)CC1)CC2 (single isomer, unassigned; (-)) [(-)1-[(3-Bromothien-2-yl)carbonyl]-4-(6-Methoxy-indan-1-yl)piperazine]
< 10	COc1ccc2c(c1)C(N1CCN(C(=O)c3ccccc3O)CC1)CC2 (single isomer, unassigned; (-)) [(-)-1-(2-Hydroxybenzoyl)-4-(6-methoxy-indan-1-yl)piperazine]
< 10	COc1ccc2c(c1)C(N1CCN(C(=O)c3sccc3Cl)CC1)CC2 (single isomer, unassigned; (-)) [(-)-1-[(3-Chlorothien-2-yl)carbonyl]-4-(6-methoxy-indan-1-yl)-1-piperazine]
< 10	COc1ccc2c(c1)C(N1CCN(C(=O)CSC)CC1)CC2 (single isomer, unassigned; (-)) [(-)-4-(6-Methoxy-indan-1-yl)-1-(2-methylthioacetyl)piperazine]
< 10	COc1ccc2c(c1)C(N1CCN(C(=O)c3cccn3C)CC1)CC2 (single isomer, unassigned; (-)) [(-)-4-(6-Methoxy-indan-1-yl)-1-[(1-methyl-pyrrol-2-yl)carbonyl]piperazine]
< 10	COc1ccc2c(c1)C(N1CCN(C(=O)c3occc3C)CC1)CC2 (single isomer, unassigned; (-)) [(-)-4-(6-Methoxy-indan-1-yl)-1-[(3-methyl-furan-2-yl)carbonyl]piperazine]
< 10	COc1ccc2c(c1)C(N1CCN(C(=O)c3ccsc3)CC1)CC2 (single isomer, unassigned; (-)) [(-)-4-(6-Methoxy-indan-1-yl)-1-[(3-thienyl)carbonyl]piperazine]
< 10	CCNC(=O)N1CCN(C2CCc3ccc(OC)cc32)CC1 (single isomer, unassigned; (-)) [(-)-N-Ethyl-4-(6-methoxy-indan-1-yl)piperazine-1-carboxamide]
< 10	COc1ccc2c(c1)C(N1CCN(C(=O)C3CCC3)CC1)CC2 (stereo not drawn) [1-(Cyclobutylcarbonyl)-4-(6-methoxy-indan-1-yl)piperazine]
< 10	CCOc1ccc2c(c1)C(N1CCN(C(=O)C3CC3)CC1)CC2 (stereo not drawn) [1-(Cyclopropylcarbonyl)-4-(6-ethoxy-indan-1-yl)piperazine]
< 10	COc1ccc2c(c1)C(N1CCN(C(=O)C3CC3)CC1)CC2 (stereo not drawn) [1-(Cyclopropylcarbonyl)-4-(6-methoxy-indan-1-yl)piperazine]
